Test results as given in paper PMC8927846 (Materials Today Bio, 2022).
pKd: −log10 of the molar value.

Experiments:
hiPS-BMEC = assay: Confocal imaging of uptake and colocalization in hiPS-BMEC; format: cell-based, human; conditions: 125 nM AF 488-Tf, 1250 nM unlabeled Tf, 1 h, 37 °C
HBEC = assay: Confocal imaging of uptake in HBEC; format: cell-based, human; conditions: 125 nM AF 488-Tf, 1250 nM unlabeled Tf, 1 h, 37 °C
[1] = tested on: hiPS-BMEC (human iPS-derived BMEC-like cells) monolayer; assay: Transwell permeability across hiPS-BMEC monolayer; format: in vitro ADME; conditions: cys-T7 versus cys-Tfr-T12 peptide
[2] = biological target: transferrin receptor (TfR); conditions: read-out: Dissociation constant Kd to TfR; cited from earlier work

Substance	pKd [2]	also measured
AF 488-Tf: Alexa Fluor 488 labeled transferrin		Internalization on co-incubation with 10-fold excess of unlabeled Tf (hiPS-BMEC): reduced internalization; Internalization on co-incubation with 10-fold excess of unlabeled Tf (HBEC): reduced internalization
CHAIYPRH [cys-T7 peptide]		Permeability compared between the two peptides [1]: higher permeability
THRPPMWSPVWP [Tfr-T12 peptide]	7.82	
Tf: unlabeled transferrin, the native ligand of TfR	8.55	
HAIYPRH [T7 peptide]	8.00	
